Source: patent US20050026270A1 (University of Maryland, priority 1999, published 2005)

How the values were obtained:
[1] = Stability of subtilin: activity retained after storage or exposure to light
[2] = 120 h

| Substance | loss of activity on exposure to light ([1]; exposure to light) | loss of activity on storage ([1]; stored at 4° C. or 20° C.) | activity remaining after storage [2] |
| --- | --- | --- | --- |
| subtilin | rapid loss of activity | loses activity rapidly |  |
| subtilin [stable subtilin] |  |  | greater than 50% |
